*1 amine or outer side, *2 acyl side, *3 side chain or, on linkers, in order; H or OH if unused. Where a SMILES comes first, the peptide text is derived from it. Bridges are numbered along the chain shown (N, C = ends). Roman numbers before positions name the chains, in order. [ ]: non-standard residue; d: D form. Actinocin(9to1) = Cc1c2oc3c(C)ccc(C(=O)[*:1])c3nc-2c(C(=O)[*:2])c(N)c1=O; NMeV = CN[C@H](C(=O)O)C(C)C; Sar = CNCC(=O)O
Tests used:
Format in all cases: cell-based, human
[1] = tested on: PARP; assay: PARP cleavage in Ca9-22 cells (Western blot)
Method: (§1) The effect of 20 h incubation of different concentrations of 1k and 2a with Ca9-22 cells on the cleavage of PARP and procaspase 3 cleavage was undertaken using a reported procedure. In brief, the control and treated Ca9-22 cells at near confluent phase were collected and lysed, and protein samples of cell lysates (15 µg) were applied to SDS-polyacrylamide gel electrophoresis. After electrophoresis, the separated proteins were transferred onto a PVDF (polyvinylidene fluoride) filter. The blots were treated in skim milk and then probed for 120 min with a primary antibody cocktail (1:250) from an Apoptosis Western Blot Cocktail kit (purchased from Abcam, Cambridge, UK). The blots were washed and probed with horseradish peroxidase conjugated secondary antibody cocktail (1:100). Immunoreactivities were determined using Amer-sham ECL Select. Images were acquired using ChemiDoc MP System and Image Lab 4.1 software (Bio-Rad Laboratories, Hercules, CA, USA).

[2] = tested on: Ca9-22 cells; assay: Mitotic accumulation in Ca9-22 cells
Method: Another way in which cytotoxicity could occur is by initiating mitosis. In order to examine this possibility, different concentrations of the potent cytotoxin 1k that were 3, 10, and 30 times the CC50 value were incubated with Ca9-22 cells for 20 h. […] In order to explore the possibility that the dichloroacetyl group contributed to this effect, concentrations of 2a that were 3, 10, and 30 times the CC50 concentration were incubated with Ca9-22 cells for 20 h. […] The question arose as to the way in which this observation could be useful in anticancer drug design. Cells which are stimulated to divide are likely more sensitive to a subsequent attack of a cytotoxin when cells are in a resting stage, for example.

[3] = tested on: procaspase 3; assay: Procaspase 3 cleavage in Ca9-22 cells (Western blot); settings: for cleavage of procaspase to caspase 3: 20 h
Method: as §1

[4] = tested on: Ca9-22 squamous cell carcinoma cells; assay: Cytotoxicity (MTT, 48 h) against Ca9-22 cells; settings: for CC50: Homo sapiens, Ca9-22, 48 h, MTT, mean ± S.D. of triplicate; for SI (Ca9-22): average CC50 towards HGF, HPLF, HPC divided by CC50 against Ca9-22
Source text: (§2) The target cells used in our study were human oral squamous cell carcinoma cell lines Ca9-22 (purchased from RIKEN Cell Bank, Tukuba, RCB-1976), HSC-2 (RCB1945), HSC-3 (RCB1975), HSC-4 (RCB1902), and three human normal oral cells, gingival fibroblast (HGF), periodontal ligament fibroblast (HPLF), and pulp cells (HPC) [established from the first premolar extracted tooth in the lower jaw (because of dysfunctional position or orthodontic treatment) and periodontal tissues of a child, according to the guideline of the Institutional Board of Meikai University Ethics Committee (No. A0808)], after obtaining informed consent from the patients. These cells were incubated for 48 h with the indicated concentrations of test samples or reference compounds sodium dichloroacetate (purchased from Sigma-Aldrich Chemical Company, Saint Louis, MO, USA), 5-fluorouracil (5-FU) from Kyowa (Tokyo, Japan), and doxorubicin (DXR) (St. Louis, MO, USA) and vehicle (DMSO) (0.008, 0.016, 0.031, 0.063, 0.125, 0.25, 0.5, and 1%) in Dulbecco’s Modified Eagle Medium (DMEM) media, which was supplemented with 10% heat-inactivated fetal bovine serum. Cell viability was determined by the MTT method. Cytotoxicity caused by the vehicle (DMSO) was subtracted.
(§3) SI was calculated by dividing the average CC50 value (concentration of the compound to kill 50% of the cells) of the compound towards HGF, HPLF, and HPC cells by the CC50 value of the compound against a specific neoplastic cell line.

[5] = Cytotoxicity (MTT, 48 h) against HPC non-malignant cells; settings: female, human, normal pulp cells (HPC), mean ± S.D. of triplicate
Source text: as §2

[6] = tested on: HSC-3 squamous cell carcinoma cells; assay: Cytotoxicity (MTT, 48 h) against HSC-3 cells; settings: for CC50: Homo sapiens, HSC-3, 48 h, MTT, mean ± S.D. of triplicate; for SI (HSC-3): average CC50 towards HGF, HPLF, HPC divided by CC50 against HSC-3
Source text: as §2, §3

[7] = tested on: Ca9-22 cells; assay: Cell cycle assay in Ca9-22 cells; settings: 20 h; for G2M cell population: p < 0.05; for effect on the cell cycle: 0.1, 0.2, and 0.4 µM
Method: The evaluation of varying quantities of 1d,e,k on the cell cycle in Ca9-22 cells was undertaken by a literature method. In brief, Ca9-22 cells were treated for 20 h without (control) or with the indicated concentrations of the test samples. To neglect the cytotoxicity effect of DMSO, all samples contained 0.1% DMSO. Cells (approximately 10^6 cells) were harvested, fixed for 1 h on ice with 1% paraformaldehyde, washed twice by phosphate-buffered saline, treated for 30 min at 37 °C with 0.2 mg/mL RNase A (ribonuclease A), stained for 15 min at room temperature with 0.01% propidium iodide in the presence of 0.01% NP-40 (nonyl phenoxypolyethoxyethanol) to prevent cell aggregation, filtered through Falcon® cell strainers (pore size: 40 µm) (Corning, NY, USA), subjected to cell sorting (SH800 Series; SONY Imaging Products and Solutions Inc., Kanagawa, Japan), and then analyzed with Cell Sorter Software version 2.1.2. (SONY Imaging Products and Solutions Inc., Kanagawa, Japan).

[8] = tested on: HSC-2 squamous cell carcinoma cells; assay: Cytotoxicity (MTT, 48 h) against HSC-2 cells; settings: for CC50: Homo sapiens, HSC-2; for SI (HSC-2): average CC50 towards HGF, HPLF, HPC divided by CC50 against HSC-2
Source text: as §2, §3

[9] = tested on: HSC-4 squamous cell carcinoma cells; assay: Cytotoxicity (MTT, 48 h) against HSC-4 cells; settings: for CC50: Homo sapiens, HSC-4, 48 h, MTT, mean ± S.D. of triplicate; for SI (HSC-4): average CC50 towards HGF, HPLF, HPC divided by CC50 against HSC-4
Source text: as §2, §3

[10] = Cytotoxicity (MTT, 48 h) against HGF non-malignant cells; settings: human, normal gingival fibroblasts (HGF), mean ± S.D. of triplicate
Source text: as §2

[11] = Average cytotoxicity over the three non-malignant cells; settings: female, human, normal oral cells HGF, HPLF and HPC (average over the three)
Source text: as §2

[12] = Cytotoxicity (MTT, 48 h) against HPLF non-malignant cells; settings: human, normal periodontal ligament fibroblasts (HPLF), mean ± S.D. of triplicate
Source text: as §2

[13] = tested on: Ca9-22, HSC-2, HSC-3, and HSC-4 cells; assay: Average cytotoxicity, selectivity and PSE over the four carcinoma lines; settings: for CC50: Homo sapiens, average over Ca9-22, HSC-2, HSC-3, HSC-4; for Average SI: average of SI over Ca9-22, HSC-2, HSC-3, HSC-4
Source text: as §2, §3
PSE reflects both the potencies and differences in cytotoxicity to neoplasms and non-malignant cells. This value was the product of the reciprocal of the average CC50 value of the compounds towards Ca9-22, HSC-2, HSC-3, and HSC-4 cells and the average SI value × 100.

[14] = 48 h, MTT, mean ± S.D. of triplicate

SMILES	CC50 [4] [µM]	CC50 at 48 h [5] [µM]	CC50 [6] [µM]	SI (HSC-3) [6]	G2M cell population ([7]; 0.8 µM)	effect on the cell cycle [7]	CC50 [8, 14] [µM]	SI (HSC-2) [8]	CC50 [9] [µM]	SI (HSC-4) [9]	CC50 at 48 h [10] [µM]	CC50 at 48 h [11] [µM]	CC50 at 48 h [12] [µM]	CC50 [13] [µM]	Average SI [13]	SI (Ca9-22) [4]	further results
Cc1c2oc3c(C)ccc(C(=O)N[C@@H]4C(=O)N[C@H](C(C)C)C(=O)N5CCC[C@H]5C(=O)N(C)CC(=O)N(C)[C@@H](C(C)C)C(=O)O[C@@H]4C)c3nc-2c(C(=O)N[C@@H]2C(=O)N[C@H](C(C)C)C(=O)N3CCC[C@H]3C(=O)N(C)CC(=O)N(C)[C@@H](C(C)C)C(=O)O[C@@H]2C)c(N)c1=O [actinomycin D, reference compound] (I: T[dV]P[Sar][NMeV] / II: T[dV]P[Sar][NMeV]; ester I:1-I:C, II:1-II:C; linker I:N-II:N via Actinocin(9to1))	–	–	–	–	–	–	–	–	–	–	–	–	–	–	–	–	PARP cleavage ([1]; 1 µM): Cleavage; mitosis ([2]; 1 µM): Increased mitosis; procaspase 3 cleavage ([3]; 1 µM): Cleavage
O=C1/C(=C/c2ccc([N+](=O)[O-])cc2)CN(C(=O)C(Cl)Cl)C/C1=C\c1ccc([N+](=O)[O-])cc1 [Compound 1k]	0.02 ± 0.01	0.56 ± 0.08	0.1 ± 0.03	14.4	most prominent increase	little effects	0.08 ± 0.01	18.0	0.18 ± 0.04	8.00	3.01 ± 0.33	1.44	0.76 ± 0.13	0.1	28.1	–	subG1 population ([7]; 0.8 µM): slight increase; HSC-2 CC50 [8, 14]: double-digit nanomolar; PARP cleavage ([1]; 0.2 and 0.6 µM, 20 h): PARP was cleaved; percentage of the cells undergoing mitosis ([2]; two highest concentrations of 3, 10, 30 times the CC50 value, 20 h): increased significantly; cleavage of procaspase to caspase 3 ([3]; 0.2 and 0.6 µM): cleavage of procaspase to caspase 3 was observed; average potency figure relative to 5-FU (times lower) ([13]; average CC50 compared with 5-FU): 310 times
O=C1C(=Cc2ccccc2)CNCC1=Cc1ccccc1 [Compound 2a, 3,5-bis(benzylidene)-4-piperidone]	0.19 ± 0.03	4.3 ± 0.72	0.8 ± 0.07	14.6	–	–	0.39 ± 0.01	30.0	0.79 ± 0.22	14.8	21.7 ± 6	11.7	9.1 ± 2.87	0.54	30.3	–	PARP cleavage ([1]; 2 and 6 µM, 20 h): PARP was cleaved; mitotic accumulation ([2]; 2 µM and 6 µM, 20 h): mitotic accumulation occurred; cleavage of procaspase to caspase 3 ([3]; 2 and 6 µM): cleavage of procaspase to caspase 3 was observed
O=C1/C(=C/c2ccc(Cl)cc2)CN(C(=O)C(Cl)Cl)C/C1=C\c1ccc(Cl)cc1 [Compound 1d]	0.05	0.9 ± 0.02	0.19 ± 0.02	7.58	most prominent increase	little effects	0.1 ± 0.01	14.4	0.18 ± 0.04	8.00	2.13 ± 0.12	1.44	1.29 ± 0.14	0.13	14.7	28.8	–
O=c1[nH]cc(F)c(=O)[nH]1 [Compound 5-FU, 5-fluorouracil, reference compound]	24.5 ± 12.3	> 987	61.3 ± 9.8	>16.3	–	–	30.5 ± 7.1	>32.7	7.58 ± 0.5	–	> 1000	> 996	> 1000	31	>55.2	>40.7	–

— paper PMC9228592, “Dichloroacetyl Amides of 3,5-Bis(benzylidene)-4-piperidones Displaying Greater Toxicity to Neoplasms than to Non-Malignant Cells” (Medicines, 2022)
